Molecular target: T1, human GST-PIKFYVE (Homo sapiens, UniProt Q9Y2I7)
T1 construct: GST; purchased Carna biosciences 11-118
Assay: ADP-Glo kinase assay, enzyme inhibition activity against human PIKFYVE (Carna biosciences)
Assay type: biochemical
Conditions: inhibitory activity at final compound concentration 10 nM; 1 hour at room temperature
Experimental: The enzyme inhibition activity values for the compounds according to Examples against human PIKFYVE were calculated using the ADP-Glo™ kinase assay service of Carna biosciences, Inc. The enzyme activity evaluation method provided by Carna biosciences Inc., is shown below.
Enzyme inhibition activity was evaluated by reacting the compounds according to Examples with human GST-PIKFYVE (11-118, Carna biosciences), which was purified using glutathione Sepharose chromatography. The reaction buffer used was composed of 50 mmol/L MOPS, 1 mmol/L DTT, and pH 7.2, and all reactions of the test distilled water were performed in the buffer.
Compounds were prepared as solutions in 100% DMSO as 100× stocks and adjusted to have a final sample concentration of 10 nM.
The substrate-enzyme reaction for PIKFYVE was performed by mixing 5 μL human GST-PIKFYVE, 5 μL compounds according to Examples, 5 μL enzyme substrate, and 5 μL purified ATP and reacting for 1 hour at room temperature. After the substrate-enzyme reaction, 20 μL ADP-Glo™ Reagent was added and reacted at room temperature for 40 minutes, then 40 μL Kinase Detection Reagent was added and reacted at room temperature for 40 minutes.
After completion of the reaction, the degree of enzyme activity inhibition was measured by luminescence. The fluorescence of the enzyme activity in the solvent control group […] was set to 100%, and the fluorescence of the enzyme activity in the solvent control group without compound treatment was set to 0%. The inhibitory activity of each compound according to Examples was calculated based on these values.

T1 sequence (Q9Y2I7 whole entry): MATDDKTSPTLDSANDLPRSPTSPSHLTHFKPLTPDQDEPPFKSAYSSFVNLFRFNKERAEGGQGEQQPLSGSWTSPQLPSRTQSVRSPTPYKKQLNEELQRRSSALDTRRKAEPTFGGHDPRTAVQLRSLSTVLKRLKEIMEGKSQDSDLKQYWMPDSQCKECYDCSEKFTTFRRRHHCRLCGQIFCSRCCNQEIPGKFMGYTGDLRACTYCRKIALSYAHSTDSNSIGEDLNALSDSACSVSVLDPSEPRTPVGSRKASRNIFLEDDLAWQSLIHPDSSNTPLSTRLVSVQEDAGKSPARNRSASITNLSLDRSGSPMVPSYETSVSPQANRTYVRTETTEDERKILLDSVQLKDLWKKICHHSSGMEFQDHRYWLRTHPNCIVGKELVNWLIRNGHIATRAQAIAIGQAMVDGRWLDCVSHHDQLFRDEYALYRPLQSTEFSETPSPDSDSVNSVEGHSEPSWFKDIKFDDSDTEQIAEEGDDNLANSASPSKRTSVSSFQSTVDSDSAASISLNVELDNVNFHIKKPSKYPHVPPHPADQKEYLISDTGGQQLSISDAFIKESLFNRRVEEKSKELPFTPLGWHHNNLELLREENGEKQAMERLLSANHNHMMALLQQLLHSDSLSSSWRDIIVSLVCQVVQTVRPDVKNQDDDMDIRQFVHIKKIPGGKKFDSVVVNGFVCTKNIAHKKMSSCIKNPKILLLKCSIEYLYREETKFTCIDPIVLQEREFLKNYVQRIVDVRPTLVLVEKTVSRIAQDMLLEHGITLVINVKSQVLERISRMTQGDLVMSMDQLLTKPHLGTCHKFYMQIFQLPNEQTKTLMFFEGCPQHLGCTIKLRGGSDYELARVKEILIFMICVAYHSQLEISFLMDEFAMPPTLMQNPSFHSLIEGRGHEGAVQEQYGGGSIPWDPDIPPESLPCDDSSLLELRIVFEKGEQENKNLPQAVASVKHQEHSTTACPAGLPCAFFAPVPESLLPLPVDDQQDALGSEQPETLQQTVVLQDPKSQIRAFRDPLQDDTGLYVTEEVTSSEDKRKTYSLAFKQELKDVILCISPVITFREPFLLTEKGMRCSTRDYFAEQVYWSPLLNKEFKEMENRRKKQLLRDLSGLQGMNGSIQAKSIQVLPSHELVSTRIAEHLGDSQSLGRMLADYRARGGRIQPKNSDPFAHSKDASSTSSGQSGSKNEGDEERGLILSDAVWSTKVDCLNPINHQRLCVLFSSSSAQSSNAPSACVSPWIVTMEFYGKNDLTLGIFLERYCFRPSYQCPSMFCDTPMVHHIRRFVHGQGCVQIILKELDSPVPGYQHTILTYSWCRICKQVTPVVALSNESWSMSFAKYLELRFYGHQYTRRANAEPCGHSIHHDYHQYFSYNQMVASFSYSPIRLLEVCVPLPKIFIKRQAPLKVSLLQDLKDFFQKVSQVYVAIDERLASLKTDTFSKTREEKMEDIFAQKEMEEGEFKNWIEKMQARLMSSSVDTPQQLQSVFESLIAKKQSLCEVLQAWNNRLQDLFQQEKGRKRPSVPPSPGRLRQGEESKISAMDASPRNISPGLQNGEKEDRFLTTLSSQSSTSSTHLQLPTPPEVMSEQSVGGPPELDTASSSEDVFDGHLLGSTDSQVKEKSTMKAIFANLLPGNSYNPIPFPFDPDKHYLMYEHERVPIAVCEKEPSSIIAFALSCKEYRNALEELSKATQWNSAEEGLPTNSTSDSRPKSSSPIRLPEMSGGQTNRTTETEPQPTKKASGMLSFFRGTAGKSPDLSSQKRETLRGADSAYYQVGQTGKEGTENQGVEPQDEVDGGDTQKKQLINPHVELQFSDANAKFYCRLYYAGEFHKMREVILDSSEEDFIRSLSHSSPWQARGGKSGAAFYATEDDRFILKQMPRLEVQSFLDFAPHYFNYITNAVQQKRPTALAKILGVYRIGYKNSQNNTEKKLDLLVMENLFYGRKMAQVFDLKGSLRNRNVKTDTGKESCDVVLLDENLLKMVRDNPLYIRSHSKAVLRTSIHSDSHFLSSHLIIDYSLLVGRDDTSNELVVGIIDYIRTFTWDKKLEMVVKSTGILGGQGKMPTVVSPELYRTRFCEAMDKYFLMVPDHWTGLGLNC

SMILES	ADP-Glo kinase assay (%, 10 nM)
Cc1cccc(/C=N/n2cnc3c(Nc4cncc(C)c4)nc(N4CCOCC4)nc32)c1 [Example 192, (E)-9-((3-methylbenzylidene)amino)-N-(5-methylpyridin-3-yl)-2-morpholino-9H-purin-6-amine]	61.25%
Cc1cccc(CNn2cnc3c(Nc4ccncc4)nc(N4CCOCC4)nc32)c1 [Example 203, N^9-(3-methylbenzyl)-2-morpholino-N^6-(pyridin-4-yl)-9H-purin-6,9-diamine]	53.14%
Cc1cccc(/C=N/Nc2nc(N3CCOCC3)nc3c2ncn3C2CCN(C(=O)c3ccccn3)CC2)c1 [Example 94, (E)-(4-(6-(2-(3-methylbenzylidene)hydrazinyl)-2-morpholino-9H-purin-9-yl)piperidin-1-yl)(pyridin-2-yl)methanone]	58.50%
FC(F)(F)c1cccc(/C=N/n2cnc3c(Nc4ccncc4)nc(N4CCOCC4)nc32)c1 [Example 170, (E)-2-morpholino-N-(pyridin-4-yl)-9-((3-(trifluoromethyl)benzylidene)amino)-9H-purin-6-amine]	79.60%
Cc1ccc(/C=N/n2cnc3c(Nc4ccncc4)nc(N4CCOCC4)nc32)cc1 [Example 168, (E)-9-((4-methylbenzylidene)amino)-2-morpholino-N-(pyridin-4-yl)-9H-purin-6-amine]	87.26%
Cc1cccc(/C=N/Nc2nc(N3CCOCC3)nc3nc(-c4cccnc4)ccc23)c1 [Example 216, (E)-4-(4-(2-(3-methylbenzylidene)hydrazinyl)-7-(pyridin-3-yl)pyrido[2,3-d]pyrimidin-2-yl)morpholine]	63.00%
COC(=O)N1CC(n2cnc3c(N/N=C/c4cccc(C)c4)nc(N4CCOCC4)nc32)C1 [Example 83, methyl (E)-3-(6-(2-(3-methylbenzylidene)hydrazinyl)-2-morpholino-9H-purin-9-yl)azetidine-1-carboxylate]	63.61%
Cc1cccc(/C=N/Nc2nc(N3CCOCC3)nc3c2ncn3C2CN(C(=O)c3ccccc3)C2)c1 [Example 81, (E)-(3-(6-(2-(3-methylbenzylidene)hydrazinyl)-2-morpholino-9H-purin-9-yl)azetidin-1-yl)(phenyl)methanone]	60.34%
Cc1cccc(/C=N/Nc2nc(N3CCOCC3)nc3c2cnn3-c2cccnc2)c1 [Example 13, (E)-4-(4-(2-(3-methylbenzylidene)hydrazinyl)-1-(pyridin-3-yl)-1H-pyrazolo[3,4-d]pyrimidin-6-yl)morpholine]	51.68%
Cc1cccc(/C=N/Nc2nc(N3CCOCC3)nc3c2cnn3-c2ccncc2)c1 [Example 16, (E)-4-(4-(2-(3-methylbenzylidene)hydrazinyl)-1-(pyridin-4-yl)-1H-pyrazolo[3,4-d]pyrimidin-6-yl)morpholine]	63.02%
Cc1cccc(/C=N/n2c(C)nc3c(Nc4ccccc4)nc(N4CCOCC4)nc32)c1 [Example 206, (E)-8-methyl-9-((3-methylbenzylidene)amino)-2-morpholino-N-phenyl-9H-purin-6-amine]	53.87%
Cc1cccc(Nc2nc(N3CCOCC3)nc3c2ncn3/N=C/c2cccnc2)c1 [Example 190, (E)-2-morpholino-9-((pyridin-3-ylmethylene)amino)-N-(m-tolyl)-9H-purin-6-amine]	78.59%
Cc1cccc(-c2ccn(-c3nc(N4CCOCC4)nc4c3ncn4-c3cccc(Cl)c3)n2)c1 [Example 135, 4-(9-(3-chlorophenyl)-6-(3-(m-tolyl)-1H-pyrazol-1-yl)-9H-purin-2-yl)morpholine]	51.18%
COc1cccc(/C=N/n2cnc3c(Nc4ccncc4)nc(N4CCOCC4)nc32)c1 [Example 172, (E)-9-((3-methoxybenzylidene)amino)-2-morpholino-N-(pyridin-4-yl)-9H-purin-6-amine]	90.96%
Cc1cccc(/C=N/Nc2nc(N3CCOCC3)nc3c2ncn3CC(=O)N2CCc3ccccc32)c1 [Example 29, (E)-1-(indolin-1-yl)-2-(6-(2-(3-methylbenzylidene)hydrazinyl)-2-morpholino-9H-purin-9-yl)ethan-1-one]	55.15%
Cc1cccc(/C=N/Nc2nc(N3CCOCC3)nc3c2ncn3CC(=O)C2CC2)c1 [Example 19, (E)-1-cyclopropyl-2-(6-(2-(3-methylbenzylidene)hydrazinyl)-2-morpholino-9H-purin-9-yl)ethan-1-one]	58.67%
COc1cccc(-c2ccn(-c3nc(N4CCOCC4)nc4c3ncn4CC(=O)c3ccccn3)n2)c1 [Example 68, 2-(6-(3-(3-methoxyphenyl)-1H-pyrazol-1-yl)-2-morpholino-9H-purin-9-yl)-1-(pyridin-2-yl)ethan-1-one]	56.03%
Clc1cccc(/C=N/n2cnc3c(Nc4ccncc4)nc(N4CCOCC4)nc32)c1 [Example 171, (E)-9-((3-chlorobenzylidene)amino)-2-morpholino-N-(pyridin-4-yl)-9H-purin-6-amine]	86.73%
Cc1cccc(/C=N/Nc2nc(N3CCOCC3)nc3c(-c4ccccc4)cn(C)c23)c1 [Example 9, (E)-4-(5-methyl-4-(2-(3-methylbenzylidene)hydrazinyl)-7-phenyl-5H-pyrrolo[3,2-d]pyrimidin-2-yl)morpholine]	51.47%
Cc1cccc(/C=N/n2cnc3c(Nc4ccc(Cl)cc4)nc(N4CCOCC4)nc32)c1 [Example 186, (E)-N-(4-chlorophenyl)-9-((3-methylbenzylidene)amino)-2-morpholino-9H-purin-6-amine]	52.43%
COc1cccc(C(=O)Cn2cnc3c(N/N=C/c4cccc(C)c4)nc(N4CCOCC4)nc32)c1 [Example 38, (E)-1-(3-methoxyphenyl)-2-(6-(2-(3-methylbenzylidene)hydrazinyl)-2-morpholino-9H-purin-9-yl)ethan-1-one]	82.96%
COc1cccc(Nc2nc(N3CCOCC3)nc3c2ncn3/N=C/c2cccc(C)c2)c1 [Example 184, (E)-N-(3-methoxyphenyl)-9-((3-methylbenzylidene)amino)-2-morpholino-9H-purin-6-amine]	55.65%
COc1ccc(Nc2nc(N3CCOCC3)nc3c2nc(C)n3/N=C/c2cccc(C)c2)cc1 [Example 205, (E)-N-(4-methoxyphenyl)-8-methyl-9-((3-methylbenzylidene)amino)-2-morpholino-9H-purin-6-amine]	53.74%
COc1cccc(-n2c(C)nc3c(N/N=C/c4cccc(C)c4)nc(N4CCOCC4)nc32)c1 [Example 160, (E)-4-(9-(3-methoxyphenyl)-8-methyl-6-(2-(3-methylbenzylidene)hydrazinyl)-9H-purin-2-yl)morpholine]	77.75%
Cc1cccc(/C=N/Nc2nc(N3CCOCC3)nc3c2ncn3CC(=O)c2ccc(N3CCOCC3)cc2N2CCOCC2)c1 [Example 51, (E)-1-(2,4-dimorpholinophenyl)-2-(6-(2-(3-methylbenzylidene)hydrazinyl)-2-morpholino-9H-purin-9-yl)ethan-1-one]	66.19%
Cc1cccc(/C=N/Nc2nc(N3CCOCC3)nc3c2ncn3CC(=O)c2cnccn2)c1 [Example 54, (E)-2-(6-(2-(3-methylbenzylidene)hydrazinyl)-2-morpholino-9H-purin-9-yl)-1-(pyrazin-2-yl)ethan-1-one]	58.10%
Cc1cccc(/C=N/n2cnc3c(Nc4cccnc4C)nc(N4CCOCC4)nc32)c1 [Example 194, (E)-9-((3-methylbenzylidene)amino)-N-(2-methylpyridin-3-yl)-2-morpholino-9H-purin-6-amine]	61.38%

From patent US20250388582A1, “NOVEL BICYCLIC HETEROARYL COMPOUND AND USE THEREOF” (ILDONG PHARMACEUTICAL CO., LTD., priority 2022, published 2025)
